These results are taken from patent publication US12122779B2, “Pyrrolo-pyridazine derivatives as muscarinic M1 receptor positive allosteric modulators” (SUVEN LIFE SCIENCES LIMITED, priority 2018, dated 2024).

Series [1] can be described thus: Rodent pharmacokinetic study. The format is in vivo, Male Wistar rats. Particulars: male, Wistar, plasma, rat; for bioavailability: oral 3 mg/kg vs intravenous 1 mg/kg, read-out: F (%) Bioavailability. As to the method:
Rodent Pharmacokinetic Study
Male Wistar rats (260±50 grams) were used as experimental animals. Animals were housed individually in polypropylene cage. Two days prior to study, male Wistar rats were anesthetized with isoflurane for surgical placement of jugular vein catheter. Rats were randomly divided for oral (3 mg/kg) and intravenous (1 mg/kg) dosing (n=3/group) and fasted overnight before oral dosing (p.o.). However, rats allocated to intravenous dosing food and water was provided ad libitum.
At pre-determined point, blood was collected through jugular vein and replenished with an equivalent volume of normal saline. Collected blood was transferred into a labeled eppendorf tube containing 10 μL of heparin as an anticoagulant. Typically blood samples were collected at following time points: 0.08, 0.25, 0.5, 1, 2, 4, 6, 8, and 24 h post dose. Blood was centrifuged at 4000 rpm for 10 minutes. Plasma was separated and stored frozen at −80° C. until analysis. The concentrations of the test compounds were quantified in plasma by qualified LC-MS/MS method using suitable extraction technique. The test compounds were quantified in the calibration range around 1-1000 ng/mL in plasma. Study samples were analyzed using calibration samples in the batch and quality control samples spread across the batch.
Pharmacokinetic parameters Cmax, AUCt, T1/2, Clearance and Bioavailability (F) were calculated by non-compartmental model using standard non-compartmental model by using Phoenix WinNonlin 6.0.4 version Software package.

Series [2] has as its target T1, recombinant human Muscarinic M1 receptor (Homo sapiens, UniProt P11229).
T1 sequence (P11229 1-460): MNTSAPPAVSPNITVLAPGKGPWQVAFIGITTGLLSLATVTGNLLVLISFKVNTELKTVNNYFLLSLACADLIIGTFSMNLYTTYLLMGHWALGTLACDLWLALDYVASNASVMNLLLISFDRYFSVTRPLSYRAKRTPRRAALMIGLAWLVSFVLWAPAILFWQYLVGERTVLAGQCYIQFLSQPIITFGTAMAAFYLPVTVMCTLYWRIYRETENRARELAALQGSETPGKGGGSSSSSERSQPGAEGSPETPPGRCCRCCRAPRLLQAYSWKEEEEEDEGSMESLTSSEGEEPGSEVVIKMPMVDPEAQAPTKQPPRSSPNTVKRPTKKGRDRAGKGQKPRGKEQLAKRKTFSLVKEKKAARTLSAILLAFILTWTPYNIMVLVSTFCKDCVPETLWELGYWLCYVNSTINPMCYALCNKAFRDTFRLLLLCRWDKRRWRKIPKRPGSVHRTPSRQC
As to the kind of experiment: Allosteric potency EC50 for muscarinic M1 receptor, CHO pCRE-Luc reporter cell-based assay with EC20 of acetylcholine. Particulars: CHO cells, luciferase activity, in presence of EC20 of acetylcholine, 4 hours. As to the method:
Determination of Allosteric Potency EC50 Values for Muscarinic M1 Receptor
A stable CHO cell line expressing recombinant human Muscarinic M1 receptor and pCRE-Luc reporter system was used for cell-based assay. The assay offers a non-radioactive based approach to determine binding of a compound to GPCRs. In this specific assay, the level of intracellular cyclic AMP which is modulated by activation or inhibition of the receptor is measured. The recombinant cells harbor luciferase reporter gene under the control of cyclic AMP response element.
The above cells were grown in 96 well clear bottom white plates in Hams F12 medium containing 10% fetal bovine serum (FBS). Prior to the addition of compounds or standard agonist, cells were serum starved overnight. Increasing concentrations of test compounds were added along with EC20 of acetylcholine in OptiMEM medium to the cells. The incubation was continued at 37° C. in CO2 incubator for 4 hours. Medium was removed and cells were washed with phosphate buffered saline. The cells were lysed and luciferase activity was measured in a Luminometer. Luminescence units were plotted against the compound concentrations using Graphpad software.

Series [3] is described as follows: Rodent brain penetration study. In kind it is in vivo, Male Wistar rats. The following applies: male, Wistar, brain and plasma, po; rat, 3 mg/kg p.o., brain-plasma ratio; read-out: Single dose Rat Brain Penetration (Cb/Cp) at 3 mg/kg, p.o. As to the method:
Rodent Brain Penetration Study
Male Wistar rats (260±40 grams) were used as experimental animals. Three animals were housed in each cage. Animals were given water and food ad libitum throughout the experiment and maintained on a 12 h light/dark cycle.
Brain penetration was determined in discrete manner in rats. One day prior to dosing day, male Wistar rats were acclimatized and randomly grouped according to their weight. At each time point (0.50, 1 and 2 h) n=3 animals were used.
The test compounds were suitably preformulated and administered orally at (free base equivalent) 3 mg/kg. Blood samples were removed via cardiac puncture by using isoflurane anesthesia. The animals were sacrificed to collect brain tissue. Plasma was separated and brain samples were homogenized and stored frozen at −20° C. until analysis. The concentrations of the test compounds in plasma and brain were determined using LC-MS/MS method.
The test compounds were quantified in plasma and brain homogenate by qualified LC-MS/MS method using suitable extraction technique. The test compounds were quantified in the calibration range of 1-500 ng/mL in plasma and brain homogenate. Study samples were analyzed using calibration samples in the batch and quality control samples spread across the batch. Extent of brain-plasma ratio (Cb/Cp) was calculated.

In another series the test system is Male Wistar rats. As to the kind of experiment: Object recognition task model. In kind it is in vivo. Particulars: rat, p.o.; for Exploration time mean ± S.E.M, Familiar object / Exploration time mean ± S.E.M, Novel object: choice trial 24 h after T1. As to the method:
Object Recognition Task Model
Male Wistar rats (8-10 weeks old) were used as experimental animals. Four animals were housed in each cage. Animals were kept on 20% food deprivation from a day prior to experimentation. Water was provided ad libitum throughout the experiment. Animals were maintained on a 12 h light/dark cycle in temperature and humidity controlled room. The experiment was carried out in a circular or square arena made up of acrylic. Rats were habituated to individual arenas for up to 1 hour in the absence of any objects on day 1.
One group of 12 rats received vehicle and another set of animals received test compounds, before familiar (T1) and choice (T2) trials. During the familiarization phase, (T1), the rats were placed individually in the arena for 3 minutes, in which two identical objects (a1 and a2) were positioned 10 cm from the wall. 24 h after T1, trial for long-term memory test was performed. The same rats were placed in the same arena as they were placed in T1 trial. During the choice phase (T2) rats were allowed to explore the arena for 3 minutes in presence of a copy of familiar object (a3) and one novel object (b). During the T1 and T2 trial, explorations of each object (defined as sniffing, licking, chewing or having moving vibrissae whilst directing the nose towards the object at a distance of less than 1 cm) were recorded using stopwatch. • T1 is the total time spent exploring the familiar objects (a1+a2). • T2 is the total time spent exploring the familiar object and novel object (a3+b).
The object recognition test was performed as described in Behav. Brain Res., 1988, 31, 47-59.

As for `Cc1cncc(-c2ccc(Cc3cc(C(=O)N[C@H]4CCCC[C@@H]4O)nn4cccc34)cc2)c1` (stereo in doubt) [Example 44, N-[(1S,2S)-2-Hydroxycyclohexyl]-4-[4-(5-methylpyridin-3-yl)-benzyl]-pyrrolo[1,2-b]pyridazine-2-carboxamide], in series [1] (intravenous (bolus), 1 mg/kg), the AUC(0-t) came to 2290 ± 121 ng·h/mL, the clearance turned out to be 7.1 ± 0.4 mL/min/kg and the half-life is 1.7 ± 0.1 h. In addition, in series [1], the bioavailability was found to be 64 ± 9%. In series [1] (oral (gavage), 3 mg/kg), this compound showed an AUC(0-t) of 4430 ± 618 ng·h/mL, a Cmax of 1440 ± 241 ng/mL and a half-life of 1.79 ± 0.37 h. Further, in series [2], the concentration for a half-maximal effect (EC50) is 96 nM. In series [3], the Kp is 0.17 ± 0.01.
`O=C(NC1CCOCC1)c1cc(Cc2ccc(Cl)cc2)c2cccn2n1` [Example 14, N-[Tetrahydropyran-4-yl]-4-(4-chlorobenzyl)-pyrrolo[1,2-b]pyridazine-2-carboxamide]: in the series with Male Wistar rats (3 mg/kg), the Inference result is reported as “Active”; the “Exploration time mean ± S.E.M, Familiar object” value is 11.28 ± 2.18 s; the “Exploration time mean ± S.E.M, Novel object” value was 23.08 ± 2.96 s. In series [1] (intravenous (bolus), 1 mg/kg), this compound had an AUC(0-t) of 569 ± 74 ng·h/mL, a clearance of 27 ± 1 mL/min/kg and a half-life of 5.7 ± 0.7 h. The bioavailability in series [1] was 31 ± 6%. In series [1] (oral (gavage), 3 mg/kg), this compound had an AUC(0-t) of 532 ± 102 ng·h/mL, a Cmax of 68 ± 22 ng/mL and a half-life of 7.9 ± 1.3 h. Further, the concentration giving a half-maximal response (EC50) in series [2] was found to be 976 nM. Also, the Kp in series [3] came out at 3.26 ± 0.02.
In series [1] (intravenous (bolus), 1 mg/kg), `Cn1cc(-c2ccc(Cc3cc(C(=O)NCC(C)(C)O)nn4cccc34)cc2)cn1` [Example 19, N-[2-hydroxy-2-methyl-propyl] 4-[4-(1-methyl-1H-pyrazol-4-yl)-benzyl]-pyrrolo[1,2-b]pyridazine-2-carboxamide] showed an area under the curve AUC(0-t) of 983 ± 91 ng·h/mL, a clearance of 17 ± 1.6 mL/min/kg and a half-life of 0.5 h. Besides, the bioavailability in series [1] was 66 ± 18%. In series [1] (oral (gavage), 3 mg/kg), the exposure AUC(0-t) is 1940 ± 520 ng·h/mL, the Cmax stood at 933 ± 260 ng/mL and the half-life is 1 ± 0.1 h. Moreover, the EC50 in series [2] turned out to be 336 nM. Besides, the Kp in series [3] was 0.26 ± 0.02.
For `Cn1cc(-c2ccc(Cc3cc(C(=O)NCC4(O)CCCCC4)nn4cccc34)cc2)cn1` [Example 24, N-[l-Hydroxy-cyclohexylmethyl] 4-[4-(1-methyl-1H-pyrazol-4-yl)-benzyl]-pyrrolo[1,2-b]pyridazine-2-carboxamide], in series [1] (intravenous (bolus), 1 mg/kg), the exposure AUC(0-t) is 359 ± 58 ng·h/mL, the clearance was determined as 47 ± 8 mL/min/kg and the half-life is 1.6 ± 0.3 h. In series [1], the bioavailability came out at 5 ± 1%. In series [1] (oral (gavage), 3 mg/kg), the AUC(0-t) is 52 ± 8 ng·h/mL, the Cmax was 16 ± 4 ng/mL and the half-life was 1.9 ± 1.1 h. The EC50 in series [2] was found to be 531 nM. For the same compound, in series [3], the Kp came out at 0.38.
Turning to `CC(C)(O)CNC(=O)c1cc(Cc2ccc(-c3cccnc3)cc2)c2cccn2n1` [Example 29, N-[2-Hydroxy-2-methyl-propyl] 4-[4-(3-pyridyl)-benzyl]-pyrrolo[1,2-b]pyridazine-2-carboxamide], in the series with Male Wistar rats (1 mg/kg), the Inference entry was “Active”; the “Exploration time mean ± S.E.M, Familiar object” value was found to be 12.17 ± 1.26 s; the “Exploration time mean ± S.E.M, Novel object” value turned out to be 22.26 ± 1.05 s. Besides, in series [1] (intravenous (bolus), 1 mg/kg), the AUC(0-t) amounted to 2280 ± 161 ng·h/mL, the clearance came to 7.2 ± 0.5 mL/min/kg and the half-life was 1.5 ± 0.1 h. Moreover, the bioavailability in series [1] was found to be 88 ± 4%. In series [1] (oral (gavage), 3 mg/kg), this compound had an area under the curve AUC(0-t) of 6030 ± 279 ng·h/mL, a Cmax of 1810 ± 327 ng/mL and a half-life of 2.2 ± 0.6 h. Also, the EC50 in series [2] amounted to 1170 nM. For the same compound, the Kp in series [3] came to 0.31 ± 0.04.
`O=C(NC1CCOCC1)c1cc(Cc2ccc(-c3ccncc3)cc2)c2cccn2n1` [Example 31, N-[Tetrahydropyran-4-yl] 4-[4-(4-pyridyl)-benzyl]-pyrrolo[1,2-b]pyridazine-2-carboxamide]: in the series with Male Wistar rats (0.1 mg/kg), the Inference entry is “Active”; the “Exploration time mean ± S.E.M, Familiar object” value was 14.19 ± 1.02 s; the “Exploration time mean ± S.E.M, Novel object” value came to 20.18 ± 1.21 s. Further, in series [1] (intravenous (bolus), 1 mg/kg), the AUC(0-t) was determined as 576 ± 192 ng·h/mL, the clearance was 30.3 ± 8.9 mL/min/kg and the half-life is 1.5 ± 0.4 h. Besides, in series [1], the bioavailability was found to be 114 ± 20%. In addition, in series [1] (oral (gavage), 3 mg/kg), the AUC(0-t) stood at 1960 ± 360 ng·h/mL, the highest level (Cmax) was 363 ± 40 ng/mL and the half-life is 2.8 ± 0.1 h. The EC50 in series [2] came to 1550 nM. Moreover, the Kp in series [3] came to 1.41 ± 0.19.

As a reminder, the AUC(0-t) is the area under the concentration-time curve up to a stated or last time point. Lower therefore signals low exposure. Broadly, the clearance is the rate of elimination divided by the concentration. The term half-life denotes the time needed for the level to fall by half in the phase considered. Lower therefore signals rapid decline. As a reminder, the Cmax is the peak of the concentration-time curve. What is called EC50 is the midpoint of the concentration-response curve.
